This is an account of results in ChEMBL document CHEMBL4020765, “Synthesis and α-glucosidase inhibition activity of dihydroxy pyrrolidines” (Bioorg Med Chem Lett, 2017).

What is called IC50 is the concentration that gives 50% inhibition.

A short description of test [1]: Inhibition of alpha glucosidase (unknown origin) using PNPG as substrate preincubated for 15 to 20 mins followed by substrate addition measured after 45 to 60 mins by spectrophotometric method.
Test [2] in a line: Inhibition of alpha glucosidase (unknown origin) using PNPG as substrate preincubated for 10 mins followed by substrate addition measured after 30 mins. On the set-up: species or system Homo sapiens.
The species entered for test [3] is Homo sapiens. Put plainly: Potency index, ratio of voglibose IC50 to compound IC50 for alpha glucosidase (unknown origin).
For test [4], the species on record is Homo sapiens. Put plainly: Potency index, ratio of acarbose IC50 to compound IC50 for alpha glucosidase (unknown origin).
The species entered for test [5] is Homo sapiens. Put plainly: Potency index, ratio of miglitol IC50 to compound IC50 for alpha glucosidase (unknown origin).

In the case of `O=C(/C=C/c1ccc(F)cc1)Nc1ccc(CCC(=O)N2C[C@@H](O)[C@H](O)C2)cc1`, the IC50 in test [1] (read-out: IC50) turned out to be 111 µM.

`C[C@H]1O[C@H](O[C@H]2[C@H](O)[C@@H](O)[C@@H](O[C@H]3[C@H](O)[C@@H](O)C(O)O[C@@H]3CO)O[C@@H]2CO)[C@H](O)[C@@H](O)[C@@H]1N[C@H]1C=C(CO)[C@@H](O)[C@H](O)[C@H]1O` (stereo not given in full) [ACARBOSE]: the IC50 in test [1] (read-out: IC50) was 360 µM.

Take `O=C(CCc1ccsc1)N1C[C@@H](O)[C@H](O)C1`: in test [1] (read-out: IC50), the IC50 worked out at 723 µM.

As to `O=C(Nc1ccc(CCC(=O)N2C[C@@H](O)[C@H](O)C2)cc1)c1ccsc1`, the IC50 in test [1] (read-out: IC50) is 474 µM.

For the molecule `O=C(CCc1ccccc1C(F)(F)F)N1C[C@@H](O)[C@H](O)C1`, the IC50 in test [1] (read-out: IC50) is 272 µM.

In the case of `O=C(/C=C/c1ccc(O)cc1)Nc1ccc(CCC(=O)N2C[C@@H](O)[C@H](O)C2)cc1`, the IC50 result in test [1] is recorded as “Not Active”.

As to `O=C(CCc1ccc(C(F)(F)F)cc1)Nc1ccc(CCC(=O)N2C[C@H](O)[C@@H](O)C2)cc1`, in test [1], the half-maximal inhibitory concentration (IC50) result is on record as “Not Active”.

`Cn1cc(C(=O)N2C[C@H](O)[C@@H](O)C2)c2ccccc21`: in test [1] (read-out: IC50), the IC50 worked out at 594 µM.

Regarding `Nc1ccc(CCC(=O)Nc2ccc(CCC(=O)N3C[C@H](O)[C@@H](O)C3)cc2)cc1`, in test [1] (read-out: IC50), the IC50 came out at 262 µM.

As to `O=C(/C=C/c1ccc(O)cc1)N1C[C@H](O)[C@@H](O)C1`, in test [1] (read-out: IC50), the IC50 is 506 µM.

`CC(C)(C)OC(=O)Nc1ccc(CCC(=O)N2C[C@@H](O)[C@H](O)C2)cc1`: in test [1], the IC50 entry is “Not Active”.

On to `O=C(/C=C/c1ccc(C(F)(F)F)cc1)N1C[C@@H](O)[C@H](O)C1`, for which, in test [1] (read-out: IC50), the IC50 turned out to be 605 µM.

In the case of `O=C(/C=C/c1ccc(F)cc1)Nc1ccc(CCC(=O)N2C[C@H](O)[C@@H](O)C2)cc1`, in test [1] (read-out: IC50), the IC50 was 200 µM.

Consider `CO[C@H]1C=CC(=O)N1C(=O)CCc1ccccc1`, for which half-maximal inhibition in test [2] (IC50) was put at 430 µM.

In the case of `Cn1cc(C(=O)N2C[C@@H](O)[C@H](O)C2)c2ccccc21`, in test [1] (read-out: IC50), the IC50 came to 531 µM.

`O=C(CCc1ccc(NS(=O)(=O)c2ccc(F)cc2)cc1)N1C[C@H](O)[C@@H](O)C1`: in test [1], the IC50 result is on record as “Active”.

On to `O=S(=O)(c1ccc(O)cc1)N1C[C@@H](O)[C@H](O)C1`, for which the IC50 in test [1] (read-out: IC50) amounted to 607 µM.

Consider `O=C(CCc1ccccc1)N1C[C@@H](O)[C@H](O)C1`, for which, in test [1], the IC50 result is “Not Active”.

Consider `OCCN1C[C@H](O)[C@@H](O)[C@H](O)[C@H]1CO` [MIGLITOL], for which, in test [1] (read-out: IC50), the IC50 was 462 µM.

`Cn1c(C(=O)N2C[C@@H](O)[C@H](O)C2)cc2ccccc21`: the IC50 in test [1] (read-out: IC50) turned out to be 539 µM.

As for `O=C(CCc1ccc(C(F)(F)F)cc1)N1C[C@@H](O)[C@@H](O)C1`, the IC50 in test [1] (read-out: IC50) was 886 µM.

As for `O=C1C=C[C@H](O)N1C(=O)CCc1ccccc1`, in test [2], the IC50 was 7820 µM.

On to `Cn1c(C(=O)N2C[C@H](O)[C@@H](O)C2)cc2ccccc21`, for which the 50% inhibitory concentration (IC50) in test [1] (read-out: IC50) came out at 556 µM.

With `O=C(CCc1ccccc1F)N1C[C@H](O)[C@@H](O)C1`, in test [1], the IC50 result was “Not Active”.

`O=C(CCc1ccncc1)N1C[C@@H](O)[C@H](O)C1`: the IC50 in test [1] (read-out: IC50) was 966 µM.

`O=C(/C=C/c1ccccc1C(F)(F)F)N1C[C@H](O)[C@@H](O)C1`: the IC50 in test [1] (read-out: IC50) worked out at 656 µM.

As for `O=C(CCc1ccccc1C(F)(F)F)N1C[C@H](O)[C@@H](O)C1`, the IC50 in test [1] (read-out: IC50) is 124 µM.

For the molecule `CC(C)(C)OC(=O)Nc1ccc(CCC(=O)N2C[C@H](O)[C@@H](O)C2)cc1`, the IC50 result in test [1] is “Not Active”.

With `O=C(/C=C/c1ccc(C(F)(F)F)cc1)Nc1ccc(CCC(=O)N2C[C@H](O)[C@@H](O)C2)cc1`, in test [1], the IC50 result is “Not Active”.

Regarding `O=C(/C=C/c1ccccc1F)N1C[C@@H](O)[C@H](O)C1`, in test [1] (read-out: IC50), the IC50 was 862 µM.

For `O=C(CCc1ccc([N+](=O)[O-])cc1)N1C[C@@H](O)[C@H](O)C1`, in test [1], the IC50 result is reported as “Not Active”.

Take `Nc1ccc(CCC(=O)Nc2ccc(CCC(=O)N3C[C@@H](O)[C@H](O)C3)cc2)cc1`: the IC50 in test [1] (read-out: IC50) turned out to be 259 µM.

As to `O=C(Nc1ccc(CCC(=O)N2C[C@H](O)[C@@H](O)C2)cc1)c1ccsc1`, the IC50 in test [1] (read-out: IC50) was 495 µM.

`O=C(CCc1ccsc1)N1C[C@H](O)[C@@H](O)C1`: the IC50 in test [1] (read-out: IC50) worked out at 796 µM.

`OCC(CO)N[C@H]1C[C@](O)(CO)[C@@H](O)[C@H](O)[C@H]1O` [VOGLIBOSE]: in test [1] (read-out: IC50), the IC50 came out at 325 µM.

Turning to `O=S(=O)(c1ccc(OC(F)(F)F)cc1)N1C[C@H](O)[C@@H](O)C1`, the IC50 in test [1] (read-out: IC50) is 228 µM.

Take `O=S(=O)(c1ccc(C(F)(F)F)cc1)N1C[C@H](O)[C@@H](O)C1`: in test [1] (read-out: IC50), the IC50 is 497 µM.

Consider `O=C(CCc1ccc(NS(=O)(=O)c2ccc(F)cc2)cc1)N1C[C@@H](O)[C@H](O)C1`, for which the IC50 entry in test [1] is “Active”.

Turning to `O=S(=O)(c1ccc(OC(F)(F)F)cc1)N1C[C@@H](O)[C@H](O)C1`, the IC50 result in test [1] is listed as “Active”.

Take `O=C(CCc1ccc(NS(=O)(=O)c2ccc(C(F)(F)F)cc2)cc1)N1C[C@H](O)[C@@H](O)C1`: in test [1] (read-out: IC50), the IC50 turned out to be 463 µM.

In the case of `Nc1ccc(CCC(=O)N2C[C@H](O)[C@@H](O)C2)cc1`, in test [1] (read-out: IC50), the concentration for half-maximal inhibition (IC50) was determined as 185 µM.

With `Nc1ccc(CCC(=O)N2C[C@@H](O)[C@@H](O)C2)cc1`, the IC50 in test [1] (read-out: IC50) was determined as 302 µM.

`O=C(/C=C/c1ccc(C(F)(F)F)cc1)N1C[C@@H](O)[C@@H](O)C1`: in test [1] (read-out: IC50), the IC50 is 638 µM.

Turning to `CC(C)(C)OC(=O)Nc1ccc(CCC(=O)N2C[C@@H](O)[C@@H](O)C2)cc1`, the half-maximal inhibitory concentration (IC50) in test [1] (read-out: IC50) is 556 µM.

Consider `Nc1ccc(CCC(=O)N2C[C@@H](O)[C@H](O)C2)cc1`, for which the Ratio IC50 in the test listed under Homo sapiens [3], in the test filed under Homo sapiens [4] and in the test listed under Homo sapiens [5] was 3 to 4 throughout. Further, the IC50 in test [1] (read-out: IC50) came to 108 µM.

`O=C(/C=C/c1ccc(C(F)(F)F)cc1)N1C[C@H](O)[C@@H](O)C1`: in test [1] (read-out: IC50), the half-maximal inhibitory concentration (IC50) came to 652 µM.

In the case of `O=C(/C=C/c1ccccc1C(F)(F)F)N1C[C@@H](O)[C@H](O)C1`, the IC50 result in test [1] is “Active”.

On to `O=C(CCc1ccc(C(F)(F)F)cc1)N1C[C@H](O)[C@@H](O)C1`, for which the IC50 in test [1] (read-out: IC50) came to 863 µM.

`O=C(/C=C/c1ccsc1)N1C[C@H](O)[C@@H](O)C1`: in test [1], the IC50 entry was “Not Active”.

For `O=C(CCc1ccncc1)N1C[C@H](O)[C@@H](O)C1`, the IC50 in test [1] (read-out: IC50) stood at 943 µM.

On to `O=C(/C=C/c1ccc(O)cc1)N1C[C@@H](O)[C@H](O)C1`, for which, in test [1] (read-out: IC50), the IC50 amounted to 546 µM.

Turning to `O=C(CCc1ccc(O)cc1)Nc1ccc(CCC(=O)N2C[C@@H](O)[C@H](O)C2)cc1`, the Ratio IC50 in the test listed under Homo sapiens [3], in the test filed under Homo sapiens [4] and in the test listed under Homo sapiens [5] was 3 to 4 throughout. Also, the IC50 in test [1] (read-out: IC50) worked out at 104 µM.

Regarding `O=C(/C=C/c1ccc(O)cc1)Nc1ccc(CCC(=O)N2C[C@H](O)[C@@H](O)C2)cc1`, the IC50 entry in test [1] was “Not Active”.

As for `O=C(CCc1ccc(N(S(=O)(=O)c2ccc(C(F)(F)F)cc2)S(=O)(=O)c2ccc(C(F)(F)F)cc2)cc1)N1C[C@H](O)[C@@H](O)C1`, in test [1] (read-out: IC50), the IC50 was 114 µM.

On to `O=C(CCc1ccccc1)N1C[C@H](O)[C@@H](O)C1`, for which, in test [1], the IC50 entry was “Not Active”.

`O=C(CCc1ccc(F)cc1)Nc1ccc(CCC(=O)N2C[C@H](O)[C@@H](O)C2)cc1`: the IC50 entry in test [1] is recorded as “Not Active”.

For the molecule `O=C(CCc1ccc(O)cc1)Nc1ccc(CCC(=O)N2C[C@H](O)[C@@H](O)C2)cc1`, the Ratio IC50 in the test filed under Homo sapiens [3], in the test listed under Homo sapiens [4] and in the test listed under Homo sapiens [5] was 3 to 4 throughout. In addition, the IC50 in test [1] (read-out: IC50) turned out to be 98.5 µM.

With `O=C(CCc1ccc(NS(=O)(=O)c2ccc(C(F)(F)F)cc2)cc1)N1C[C@@H](O)[C@H](O)C1`, the IC50 in test [1] (read-out: IC50) was determined as 429 µM.

Consider `O=C(/C=C/c1ccccc1)N1C[C@@H](O)[C@H](O)C1`, for which the IC50 in test [1] (read-out: IC50) amounted to 822 µM.

In the case of `O=C(/C=C/c1ccc(C(F)(F)F)cc1)Nc1ccc(CCC(=O)N2C[C@@H](O)[C@H](O)C2)cc1`, the IC50 entry in test [1] is listed as “Not Active”.

Consider `O=C(/C=C/c1ccccc1F)N1C[C@H](O)[C@@H](O)C1`, for which the concentration for half-maximal inhibition (IC50) in test [1] (read-out: IC50) is 837 µM.

On to `O=C(/C=C/c1ccsc1)N1C[C@@H](O)[C@H](O)C1`, for which the IC50 result in test [1] is on record as “Not Active”.

As to `O=C(CCc1ccc([N+](=O)[O-])cc1)N1C[C@H](O)[C@@H](O)C1`, the IC50 in test [1] (read-out: IC50) is 772 µM.

With `O=C(CCc1ccc(O)cc1)N1C[C@H](O)[C@@H](O)C1`, the concentration for half-maximal inhibition (IC50) in test [1] (read-out: IC50) is 602 µM.

For `O=C(CCc1ccc(F)cc1)Nc1ccc(CCC(=O)N2C[C@@H](O)[C@H](O)C2)cc1`, the 50% inhibitory concentration (IC50) result in test [1] is listed as “Not Active”.

`O=C(/C=C/c1ccccc1)N1C[C@H](O)[C@@H](O)C1`: the IC50 in test [1] (read-out: IC50) is 747 µM.

With `O=C(CCc1ccccc1F)N1C[C@@H](O)[C@H](O)C1`, the 50% inhibitory concentration (IC50) result in test [1] is reported as “Not Active”.

For the molecule `O=C(CCc1ccc(O)cc1)N1C[C@@H](O)[C@H](O)C1`, in test [1] (read-out: IC50), the IC50 worked out at 657 µM.

As to `O=C(CCc1ccc(C(F)(F)F)cc1)N1C[C@@H](O)[C@H](O)C1`, the IC50 in test [1] (read-out: IC50) turned out to be 856 µM.

Regarding `O=S(=O)(c1ccc(O)cc1)N1C[C@H](O)[C@@H](O)C1`, the IC50 in test [1] (read-out: IC50) was 453 µM.

Turning to `O=C(CCc1ccc(C(F)(F)F)cc1)Nc1ccc(CCC(=O)N2C[C@@H](O)[C@H](O)C2)cc1`, the IC50 entry in test [1] is on record as “Not Active”.
